Read-outs that look alike come from different tables or passages of the source.
Legend:
[1] = biological target: VchCAγ (Vibrio cholerae, UniProt Q9KVT1); experiment: stopped flow CO2 hydrase assay, VchCAγ; assay type: biochemical
[2] = biological target: T1, VchCAα (Vibrio cholerae serotype O1, UniProt Q9KMP6); experiment: stopped flow CO2 hydrase assay, VchCAα; assay type: biochemical; details: for Ki: stopped flow CO2 hydrase assay, mean from three different assays
T1 construct: made in house; host or cells: E. coli BL21 DE3
T1 sequence (Q9KMP6 21-239): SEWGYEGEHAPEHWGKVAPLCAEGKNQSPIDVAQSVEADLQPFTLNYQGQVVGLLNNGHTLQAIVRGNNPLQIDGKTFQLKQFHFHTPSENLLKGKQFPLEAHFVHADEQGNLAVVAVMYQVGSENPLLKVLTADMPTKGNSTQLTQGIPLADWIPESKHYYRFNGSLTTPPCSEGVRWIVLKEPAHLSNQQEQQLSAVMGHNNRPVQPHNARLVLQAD

[3] = biological target: VchCAβ (Vibrio cholerae, UniProt A0A086SLX8); experiment: stopped flow CO2 hydrase assay, VchCAβ; assay type: biochemical; details: for inhibitory activity toward VchCAβ (in words): qualitative statement
Chain of VchCAβ (A0A086SLX8 entry or part of it): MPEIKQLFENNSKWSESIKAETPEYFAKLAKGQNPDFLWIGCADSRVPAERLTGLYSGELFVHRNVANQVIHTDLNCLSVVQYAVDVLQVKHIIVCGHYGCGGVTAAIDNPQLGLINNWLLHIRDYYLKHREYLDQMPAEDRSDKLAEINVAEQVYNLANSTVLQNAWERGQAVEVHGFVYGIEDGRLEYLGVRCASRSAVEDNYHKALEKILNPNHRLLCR

[4] = system: pathogen; set-up: method as in PMID 26010545; details: cited from earlier work

Chain of VchCAγ (Q9KVT1 entry or part of it): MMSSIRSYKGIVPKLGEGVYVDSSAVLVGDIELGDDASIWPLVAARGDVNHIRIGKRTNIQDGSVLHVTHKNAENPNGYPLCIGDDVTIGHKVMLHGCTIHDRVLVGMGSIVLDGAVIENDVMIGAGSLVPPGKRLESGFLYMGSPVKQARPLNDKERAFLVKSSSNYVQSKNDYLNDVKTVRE

SMILES	Ki [1]	Ki ([2]; Ki VchCAα)	Ki [3]	melting point	Ki ([2]; read-out: Ki VchCAα)	reduction of activity on VchCAα compared to parent compound 8d ([2]; 8a versus 8d)	inhibitory activity toward VchCAβ (in words) [3]	growth of pathogen [4]	virulence gene expression [4]
NS(=O)(=O)c1ccc(C(=O)N2CCCCC2)cc1 [5a, 4-(Piperidine-1-carbonyl)benzenesulfonamide]	> 10 µM	0.843 µM	> 10 µM	–	–	–	–	–	–
CC1CCCCN1C(=O)c1ccc(S(N)(=O)=O)cc1 (stereo not shown) [5b, 4-(2-Methylpiperidine-1-carbonyl)benzenesulfonamide]	> 10 µM	0.296 µM	> 10 µM	–	–	–	–	–	–
CC1CCCN(C(=O)c2ccc(S(N)(=O)=O)cc2)C1 (stereo not shown) [5c, 4-(3-Methylpiperidine-1-carbonyl)benzenesulfonamide]	> 10 µM	0.529 µM	> 10 µM	–	–	–	–	–	–
CC1CCN(C(=O)c2ccc(S(N)(=O)=O)cc2)CC1 [5d, 4-(4-Methylpiperidine-1-carbonyl)benzenesulfonamide]	> 10 µM	0.589 µM	> 10 µM	212 to 213 °C	–	–	–	–	–
NS(=O)(=O)c1ccc(C(=O)N2CCC(Cc3ccccc3)CC2)cc1 [5e, 4-(4-Benzylpiperidine-1-carbonyl)benzenesulfonamide]	> 10 µM	0.242 µM	3.75 µM	156 to 157 °C	–	–	–	–	–
NS(=O)(=O)c1ccc(C(=O)N2CCCCCC2)cc1 [6a, 4-(Azepane-1-carbonyl)benzenesulfonamide]	> 10 µM	0.275 µM	> 10 µM	–	–	–	–	–	–
NS(=O)(=O)c1ccc(C(=O)N2CCC(c3ccccc3)CC2)cc1 [7a, 4-(4-Phenylpiperidine-1-carbonyl)benzenesulfonamide]	> 10 µM	0.0433 µM	3.31 µM	222 to 223 °C	–	–	–	–	–
NS(=O)(=O)c1ccc(C(=O)N2CCC(O)(c3ccccc3)CC2)cc1 [7b, 4-(4-Hydroxy-4-phenylpiperidine-1-carbonyl)benzenesulfonamide]	> 10 µM	0.194 µM	3.71 µM	135 to 137 °C	–	–	–	–	–
NS(=O)(=O)c1ccc(C(=O)N2CCC(O)(c3ccc(Cl)cc3)CC2)cc1 [7c, 4-[4-(4-Chlorophenyl)-4-hydroxypiperidine-1-carbonyl]benzenesulfonamide]	> 10 µM	0.0451 µM	3.94 µM	215 to 217 °C	–	–	–	–	–
NS(=O)(=O)c1ccc(C(=O)N2CCC(O)(c3ccc(Br)cc3)CC2)cc1 [7d, 4-[4-(4-Bromophenyl)-4-hydroxy-piperidine-1-carbonyl]benzenesulfonamide]	> 10 µM	0.0588 µM	2.78 µM	219 to 220 °C	–	–	–	–	–
N#CC1(c2ccccc2)CCN(C(=O)c2ccc(S(N)(=O)=O)cc2)CC1 [7e, 4-(4-Cyano-4-phenylpiperidine-1-carbonyl)benzenesulfonamide]	> 10 µM	0.0899 µM	0.806 µM	285 to 286 °C	–	–	–	–	–
CC(=O)C1(c2ccccc2)CCN(C(=O)c2ccc(S(N)(=O)=O)cc2)CC1 [7f, 4-(4-Acetyl-4-phenyl-piperidine-1-carbonyl)benzenesulfonamide]	> 10 µM	–	6.61 µM	–	0.0721 µM	–	–	–	–
NS(=O)(=O)c1ccc(C(=O)N2CCN(Cc3ccccc3)CC2)cc1 [8a, 4-(4-Benzylpiperazine-1-carbonyl)benzenesulfonamide]	> 10 µM	0.47 µM	> 10 µM	204 to 205 °C	–	ten-fold reduction of activity	completely loss of inhibitory activity	–	–
NS(=O)(=O)c1ccc(C(=O)N2CCN(Cc3ccc(F)cc3)CC2)cc1 [8b, 4-[4-[(4-Fluorophenyl)methyl]piperazine-1-carbonyl]benzenesulfonamide]	> 10 µM	0.0957 µM	5.01 µM	206 to 207 °C	–	–	moderate inhibitors	–	–
NS(=O)(=O)c1ccc(C(=O)N2CCN(C(c3ccccc3)c3ccccc3)CC2)cc1 [8c, 4-(4-Benzhydrylpiperazine-1-carbonyl)benzenesulfonamide]	> 10 µM	0.275 µM	4.82 µM	–	–	–	moderate inhibitors	–	–
NS(=O)(=O)c1ccc(C(=O)N2CCN(c3ccccc3)CC2)cc1 [8d, 4-(4-Phenylpiperazine-1-carbonyl)benzenesulfonamide]	> 10 µM	0.047 µM	4.16 µM	–	–	–	moderate inhibitors	–	–
CCOc1ccc2nc(S(N)(=O)=O)sc2c1 [EZA, ethoxzolamide]	–	–	–	–	–	–	–	reduce the growth of pathogen	decrease the virulence gene expression

Source: publication PMC6691843, “Seeking new approach for therapeutic treatment of cholera disease via inhibition of bacterial carbonic anhydrases: experimental and theoretical studies for sixteen benzenesulfonamide derivatives” (Journal of Enzyme Inhibition and Medicinal Chemistry, 2019)
